Measured values taken from article PMC5617326, “Structural Basis of Catalysis in the Bacterial Monoterpene Synthases Linalool Synthase and 1,8-Cineole Synthase” (ACS Catalysis, 2017).

Key:
[1] = biological target: T1, bLinS; linalool synthase; linalool/nerolidol synthase (Streptomyces clavuligerus, UniProt D5SL78); assay: product analysis by GC-MS in engineered E. coli; chiral GC; assay type: cell-based; conditions: host-made FPP in E. coli expressing bLinS; product trans-nerolidol
T1 construct: gene SCLAV_p1185; full-length codon-optimized gene in pETM11, N-terminal 6xHis tag and TEV site, tag cleaved; E. coli ArcticExpress (DE3); ~330 residues; two molecules in asymmetric unit
T1 sequence (D5SL78 1-329): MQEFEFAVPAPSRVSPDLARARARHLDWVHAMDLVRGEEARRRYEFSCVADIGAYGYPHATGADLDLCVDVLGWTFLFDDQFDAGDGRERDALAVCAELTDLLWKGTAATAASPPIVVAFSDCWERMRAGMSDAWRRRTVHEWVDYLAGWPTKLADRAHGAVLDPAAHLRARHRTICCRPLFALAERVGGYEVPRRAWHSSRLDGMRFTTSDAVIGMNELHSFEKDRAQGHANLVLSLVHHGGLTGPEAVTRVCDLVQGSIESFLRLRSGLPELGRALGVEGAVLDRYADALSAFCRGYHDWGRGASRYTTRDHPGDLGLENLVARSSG

[2] = biological target: T2, bCinS; 1,8-cineole synthase (Streptomyces clavuligerus, UniProt B5GMG2); assay: X-ray crystal structure, FGPP soaked into FNPP co-crystal; EPR with Mn2+; assay type: binding; conditions: 1.51 A; partial exchange, mixed FNPP/FGPP occupancy; three Mg2+ (third partly occupied); active site
T2 construct: gene cnsA; full-length codon-optimized gene in pETM11, N-terminal 6xHis tag and TEV site, tag cleaved; E. coli ArcticExpress (DE3); ~330 residues; dimer
T2 sequence (B5GMG2 whole entry): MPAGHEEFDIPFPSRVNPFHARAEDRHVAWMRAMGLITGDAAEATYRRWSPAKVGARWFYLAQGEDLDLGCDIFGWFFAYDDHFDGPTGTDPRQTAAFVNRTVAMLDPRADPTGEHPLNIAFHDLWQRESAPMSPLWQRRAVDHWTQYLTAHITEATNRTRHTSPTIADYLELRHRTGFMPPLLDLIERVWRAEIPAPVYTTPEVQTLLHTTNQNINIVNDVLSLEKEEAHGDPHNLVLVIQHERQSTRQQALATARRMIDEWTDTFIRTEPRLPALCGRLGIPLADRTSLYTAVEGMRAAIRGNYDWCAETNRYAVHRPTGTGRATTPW

[3] = biological target: T1, bLinS; linalool synthase; linalool/nerolidol synthase; assay: X-ray crystal structure, co-crystal; EPR with Mn2+; assay type: binding; conditions: 1.82 A; FGPP in monomer A only; one Mg2+; noncatalytic mode suggested; pH 7.5

CC(C)=CCC/C(C)=C/CC/C(C)=C/COP(=O)(O)OP(=O)(O)O [FPP, farnesyl pyrophosphate]
product analysis by GC-MS in engineered E. coli; chiral GC [1]: Strains containing bLinS were able to convert FPP to nerolidol

CC(C)=CCC/C(C)=C(\F)COP(=O)(O)OP(=O)(O)O [FGPP, 2-fluorogeranyl pyrophosphate]
X-ray crystal structure, FGPP soaked into FNPP co-crystal; EPR with Mn2+ [2]: Soaking of the bCinS-FNPP crystals with FGPP led to the partial exchange | X-ray crystal structure, co-crystal; EPR with Mn2+ [3]: clear electron density corresponding to FGPP is only present in monomer A
